Experiments:
human iPS cells [1] = test: Refrigerated storage in adhesive state (1): proliferation on recultivation for 4 days; type: cell-based
Experimental: Human iPS cells obtained in the same manner as in “1.” above were used. However, at the final stage of culturing, the cells were seeded at a slightly lower concentration (1.0E3/cm^2) than the maintenance culture of “1.” above, and the day after this seeding, culture medium was replaced by StemFit® A[…] medium containing no Y27362. Then, the medium was removed 4 days after the seeding. Subsequently, the medium was replaced with HTM1 which is for the non-freezing refrigerated storage, and the medium with the cells was left to stand for 3 or 6 days under 4° C. In other words, in a state the cells were aggregated and adhered to each other, the cells were stored in non-freezing refrigerated condition for 3 days or 6 days. Trolox was added to HTM1, which is the medium for refrigerated storage. […] A UW solution (BELZER UW (registered trademark) COLD STORAGE LIQUID) was also used as the refrigerated storage medium of the comparative example. The cells after the non-freezing refrigerated storage were lightly washed with culture medium after the refrigerated storage medium were removed. Then, StemFit® A[…] medium was added and culturing was made for 4 days. At the end of this culturing, cells were enzymatically detached (by using 0.5X TrypLE® Select), and dispersed so that number of viable cells are counted. Then, it was compared with the number of cells at the start of refrigerated storage. In addition, after taking a phase difference image at the end and start of the culturing, image processing was performed with ImageJ to extract and binarize the colony area, and the colony area was measured to evaluate the proliferative ability. The above experiment was aimed at developing a refrigerated storage method in a state iPS cells were adhered, and proliferative ability (colony forming ability) subsequent to culturing for 4 days after the non-freezing refrigerated storage for 3 or 6 days. FIGS. 7A-7B show images of colonies obtained by the […] for 4 days after 3 days of the refrigerated storage, and FIGS. 7C-7D show images of colonies obtained by recultivation for 4 days after he refrigerated storage for 6 days. Here, FIGS. 7A and 7C are phase differentiation images, and binarized images of these are shown in FIGS. 7B and 7D, respectively. […] Further, in the bar graphs of FIGS. 7F and 8, the rate of increase in the number of colonies when recultivated for 4 days after the refrigerated storage for 3 days and 6 days. In the graph, the rate for a control, which is for cell not subjected to the refrigerated storage, is taken as “1” or 100%.

[2] = system: mouse blastocyst stage embryos; test: Refrigerated storage of mouse embryos: escape from the zona pellucida; type: cell-based, mouse (ICR); details: 14 µM to 140 µM; low temperature storage for 5 days and 7 days
Experimental: On the other hand, in order to try non-freezing refrigerated storage of mouse embryos (FIGS. 10 to 11), in vitro fertilization was performed by ova and sperms from female and male mice (both ICR), and then embryos were cultured for 3.5 days (84 hours). Here, HTF (Fuji Film Wako Pure Chemical Industries, Ltd.) was used as the medium for insemination, and KSOM (Arc Resource) was used for culturing.
As described above, a blastocyst stage embryo 3.5 days after in vitro fertilization was immediately used as it was, and a refrigerated storage experiment was conducted. Specifically, for this blastocyst stage embryo, the medium was replaced with the HTM-alpha, HTM1, and HTS FRS as used in the above “11.” and the UW solution, in respective experiments. […] Both of HTM-alpha and HTM1 here are obtained by adding 5 mM Trolox and 5-fold concentration (x5; 10 mM) GlutaMAX (registered trademark) in the same manner as in “11.” above.
Next, the effect of adding adenine hydrochloride (Tokyo Kasei) was investigated in the same manner as in FIGS. 7E to 7F. That is, under the same conditions as in the experiment of FIG. 10, the rate of embryos that escaped the zona pellucida when Adenine hydrochloride (Tokyo Kasei) was added at each concentration was determined.

[3] = system: human iPS cell line (253G1); test: Non-freezing refrigerated storage in single cell state at 4° C., survival rate by trypan blue; type: cell-based; details: for effect of antioxidant/radical scavenger on ST80 (ranking): added to HTM1 at various concentrations; for 80% survival-rate maintenance days (ST80): single cell state, 4° C.
Description: A healthy human-derived human iPS cell line (253G1) obtained from the Center for iPS Cell Research and Application, Kyoto University was maintained and cultured under feeder-free conditions. For this culture, StemFit (registered trademark) AK02N (Ajinomoto), which is a commercially available medium for clinical research for human ES/iPS cells was used. When the cells reached 70-80% confluence on the 7th day after the start of the culture, the cells were enzymatically stripped off from a container by using 0.5X TrypLE® Select, and then dispersed and washed. Subsequently, the cells were suspended in a new StemFit® AK02N medium containing 10 µM Y27362 (Fujifilm Wako Pure Chemical Industries, Ltd.) as a ROCK inhibitor, and added with iMatrix-511 (MATRIXOME, Inc.) as a further cell culture substrate at 0.1 µg/cm^2. Then, the cells were seeded at a concentration of 1.3E3/cm^2 (1.3 ×10^3/cm^2). The day after the seeding, the medium was replaced with StemFit® AK02N medium containing no Y27362, then the medium was replaced every 3 days and subcultured or tested on day 7.
The human iPS cells obtained in “1.” above are added into the refrigerated storage liquids HTM1 and HTM2 in “2.” above to be suspended at 1E6 cells/mL (number of floating cells 1x10^6 cells/mL) in a cell state. Then, the suspensions were placed into a plastic tube and allowed to stand at 4° C. for storage. The survival rate was determined by counting the number of living cells after staining with trypan blue.
The statistical processing in the examples of the present application was performed as follows. The survival rate maintenance curves in FIGS. 1A and 2B were obtained by using “R ver 3.5.1” to fit the four-variable logistic curve. The 1way ANOVA and Bonferoni and Dunnetts tests were calculated using “Graphpad Prism 5.04”.
Antioxidants or radical scavengers were added to HTM1 at various concentrations and subjected to the non-freezing refrigerated storage test as described in “3.” above. The added antioxidants or radical scavengers are shown in FIG. 5A and are: Trolox (Trx, Wako), EGCG (Teavigo®, DSM), N-acetylcysteine (NAC, Tokyo Kasei), L-ascorbic acid (AA, WAKO)), and edaravone (3-Methyl-1-phenyl-2-pyrazoline-5-one, Sigma).

human iPS cells [4] = test: Colony forming ability (relative colony efficiency) after refrigerated storage for 6 days and culturing for 5 days; type: cell-based; details: 6 days storage, 5 days culturing
Experimental: The cell proliferation ability after non-freezing refrigerated storage was verified as follows. First, the human iPS cells obtained in the above “1.” were placed into the refrigerated storage liquid HTM1 of the above “2.” and stored in the non-freezing refrigerated state for 6 days as in the above “3.”. The cells were then suspended in StemFit® AK02N medium containing 10 µM Y27362, into which iMatrix-511 was added by 0.1 µg/cm^2. and seeded at a concentration of 1.3E3/cm^2. On 5th day of culturing, the cells were stained with fixed alkaline phosphatase, and then the number of colonies formed to a certain size or larger was measured using a colony counter. The number of colonies when cultured for 5 days without being subjected to the refrigerated storage was similarly measured and used as a control. Then, the number of colonies obtained by culturing for 5 days after the refrigerated storage was divided by the number of colonies in this control to obtain colony forming ability (Relative colony efficiency).
Next, in order to verify the proliferative ability after refrigerated storage and recultivation, cells having been stored in the refrigerated state for 6 days were seeded in the same manner as in “4.” above, and the colony forming ability on the 5th day of culturing was compared. […] This obtained value was almost the same as that of the customary conventional slow-cooling cryoprerservation method placing the cell suspension in a freezer at -80° C.

human iPS cells [5] = test: Relative survival rate after 6 days of refrigerated storage and 1 day of recovery culturing; type: cell-based; details: for effectiveness in refrigerated storage (relative survival rate): 0.04 mM to 5.0 mM added to HTM-alpha without trolox and GlutaMAX, compared with trolox 2.0 mM
Experimental: The HTM-alpha (UW solution + MEM-alpha, 2: 1) described in “2.” above, which has not been added with trolox and GlutaMAX (registered trademark, GIBCO), is used in FIGS. 6A and 2A. The effect of the addition of tocopherol (vitamin E) and tocopherol acetate (vitamin E derivative) in the non-freezing refrigerated storage was investigated by the same procedure as in case of trolox addition in the above. Tocopherol and tocopherol acetate were added so as to become 0.04 mM to 5.0 mM in the same manner as the trolox addition, and refrigerated storage was performed. At this time, a sample to which trolox at 2.0 mM, which is a water-soluble vitamin E analog, was added was also tested at the same time. FIG. 6D summarizes the relative survival rates after 6 days of the storage and 1 day of recovery cultivation.
Here, the effect of adding polyvinyl alcohol (PVA) instead of hydroxyethyl starch (HES) was investigated. Here, the composition of the UW solution shown in Table 1 above, excluding hydroxyethyl starch (HES), was adopted. Thus, the other components are same with those in the HTM-alpha (UW solution + MEM-alpha, 2: 1) while polyvinyl alcohol (PVA) in the range of 0.25% to 2.5% (weight) were added in the storage liquids used here. The cell viability was evaluated in the same manner as in the case of FIG. 6D above. That is, the protective effect of polyvinyl alcohol (PVA) was examined by the same procedure as in FIGS. 6A and 2A. At this time, a sample having a hydroxyethyl starch (HES) concentration of 5% (weight) was also tested at the same time. FIG. 12A summarizes the relative survival rates after 6 days of the refrigerated storage and 1 day of recovery culturing. […] It should be noted that polyvinyl alcohol (PVA) is cheaper than hydroxyethyl starch (HES), and is considered to be safer for living tissues.
Next, in the same manner as in “13.” above, mannitol was added together with polyvinyl alcohol (PVA), and the synergistic effect was verified. […]

[6] = additive 5 mM in HTM1, listed as trolox

Cl.Nc1ncnc2nc[nH]c12 [Adenine, adenine hydrochloride]
proliferation rate at recultivation (human iPS cells [1]; 2.8 mM and 4.2 mM in HTM1 with Trolox 5 mM, storage 6 days): significantly increased | growth rate at recultivation (human iPS cells [1]; 8.2 mM in HTM1 with Trolox 5 mM, storage 6 days): decreased the growth rate | zona pellucida escape rate [2]: relatively high zona pellucida escape rate

O=C(O[C@@H]1Cc2c(O)cc(O)cc2O[C@@H]1c1cc(O)c(O)c(O)c1)c1cc(O)c(O)c(O)c1 [EGCG]
effect of antioxidant/radical scavenger on ST80 (ranking) [3]: third highest effect

CC1=NN(c2ccccc2)C(=O)C1 [Edaravone, 3-Methyl-1-phenyl-2-pyrazoline-5-one]
effect of antioxidant/radical scavenger on ST80 (ranking) [3]: second highest effect

O=C1O[C@H]([C@@H](O)CO)C(O)=C1O [L-Ascorbic Acid, L-ascorbic acid]
effect of antioxidant/radical scavenger on ST80 (ranking) [3]: did not show much effect

CC(=O)N[C@@H](CS)C(=O)O [N-acetylcysteine]
effect of antioxidant/radical scavenger on ST80 (ranking) [3]: third highest effect

Cc1c(C)c2c(c(C)c1O)CCC(C)(C(=O)O)O2 (stereo not drawn) [Trolox]
colony forming ability as multiple of HTM1 alone (human iPS cells [4]; 5.0 mM added to HTM1): about twice | colony forming ability relative to control not subjected to refrigerated storage (human iPS cells [4]; 5.0 mM added to HTM1): 41.2% | colony forming ability as multiple of HTM1 alone (human iPS cells [4]; 5.0 mM added to HTM1, listed as trolox): 2.3 times | colony forming ability, dependence on concentration (human iPS cells [4]; added to HTM1): increased depending on the concentration of trolox | cell proliferation rate at recultivation compared with control not refrigerated (human iPS cells [1]; 5 mM added into HTM1, storage 3 days): almost the same value as that in the control | cell proliferation rate at recultivation relative to control not refrigerated (human iPS cells [1]; 5 mM added into HTM1, storage 6 days): about 10% | ST80 compared with HTM1 with no trolox added ([3]; 0.5 mM or more added to HTM1): significantly higher | ST80, dependence on addition concentration ([3]; added to HTM1, concentration varied): increase approximately with increasing trolox concentrations | effect of antioxidant/radical scavenger on ST80 (ranking) [3]: most effective | survival rate maintenance days (ST80) as multiple of HTM1 alone ([3]; additive 5 mM in HTM1): about 4 times | survival rate maintenance days (ST80) as multiple of UW solution ([3]; additive 5 mM in HTM1): 9.5 times | survival rate maintenance days (ST80) as multiple of HTM1 alone [3, 6]: 4.4 times | 80% survival-rate maintenance days (ST80) ([3]; additive 5 mM in HTM1): ≥ 20 days | 80% survival-rate maintenance days (ST80) [3, 6]: 20.11 days

OC[C@@H](O)[C@@H](O)[C@H](O)[C@H](O)CO [mannitol]
viability of the cells after refrigerated storage (human iPS cells [5]; 30 mM to 90 mM together with 0.5% PVA in HTM-alpha without HES, compared with 5% HES): higher

CC(=O)Oc1c(C)c(C)c2c(c1C)CCC(C)(CCC[C@H](C)CCC[C@H](C)CCCC(C)C)O2 (stereo partly drawn) [tocopherol acetate]
effectiveness in refrigerated storage (relative survival rate) (human iPS cells [5]): less effective in refrigerated storage than trolox

tocopherol
effectiveness in refrigerated storage (relative survival rate) (human iPS cells [5]): less effective in refrigerated storage than trolox

From patent US20230189790A1, “NON-FREEZING REFRIGERATED STORAGE LIQUID FOR STEM CELLS” (BIOVERDE INC., priority 2019, published 2023)
